Entries after “also recorded” stand apart in the source; their conditions may differ. Like-named read-outs stand apart in the source and are kept apart here.
Assays:
[1] = target: T1, LPA1 (Mus musculus, UniProt P61793); assay: In vivo brain LPA1 receptor occupancy with [3H]-OPC3497
T1 construct: from tissue; host or cells: mouse brain (homogenate; forebrain of dosed C57BL6/N mice in the in vivo studies)
Procedure: [^3H]-OPC3497 was diluted to 9.8 µCi/mL in saline and administered via IV injection to the lateral tail vein at a dose volume of 5 ml/kg at the times indicated. Mice were euthanized by decapitation, trunk blood collected into K3EDTA tubes and stored on wet ice, each brain rapidly dissected and the forebrain isolated, weighed and placed into a 5 ml polypropylene tube. Tissues were diluted with a 10 × volume of ice-cold binding buffer (50 mM HEPES, 100 mM NaCl, 2 mM EDTA, pH 7.4). Brains were homogenized and 350 µl of the homogenate was filtered over Whatman GF/B filters (GE Life Sciences, Marlborough, MA) pre-wetted with 0.5% polyethyleneimine. Filters were washed with cold 50 mM TRIS–HCl, 154 mM NaCl, 0.05% Tween 20, pH 7.4 twice and dried in an oven (~ 40–50 °C). 5 ml Ultima Gold F scintillation fluid (Perkin Elmer, Boston, MA, Boston, MA) was added to each tube and samples read on a Beckman LS6500 liquid scintillation counter. After all samples were collected, dissected, and filtered, the previously collected blood in K3EDTA tubes was centrifuged (1450 × g, 10 min, 4 °C) to separate plasma.

[2] = system: microglia; assay: LPA-induced microglial activation in hippocampal slices; assay type: cell-based, mouse; settings: 3 µM, 10 µM LPA
Procedure: Microglial activation was then triggered by the addition of 10 µM LPA, slices incubated for 3 additional hours, then fixed. Slices were immunostained against IBA1 and microglial perimeters were measured as a mean of differentiating between ramified/resting versus rounded/activated microglia.
Brains were harvested from mice (postnatal day 20, Charles River). […] 400 µm thick coronal slices were cut on a McIlwain tissue chopper and returned to dissection media and separated manually. […] Slices were incubated for 2 h at 37 °C (4 slices per condition). Microglial activation was initiated by adding LPA (18:1, Avanti Polar Lipids) to a final concentration of 10 µM and incubated for 3 h. Slices were then fixed in formalin and for 2 h.
For immunohistochemistry, slices were washed for 3 × 15 min in 0.5% Triton-X100 and DPBS. Slices were then stained using IBA-1 antibody (Thermo Scientific) in 10% normal goat serum with 0.5% Triton-X100 in DPBS overnight on a rocker. Slices were then washed in 0.5% Triton-X100 in DPBS 3 × 15 min. Goat anti-mouse Alexa 564 (1:500, Invitrogen, Carlsbad, CA) and […] (Invitrogen, Carlsbad, CA) were diluted in DPBS with 0.5% Triton-X100 and incubated for 2h. Slices were washed 3 × 15 min in DPBS with 0.5% Triton-X100, mounted with Fluoromount and imaged on a Nikon A1R confocal microscope.

[3] = system: rat brain meningeal fibroblasts; assay: LPA-induced activation of rat meningeal fibroblasts (COL1+ area); assay type: cell-based; settings: LPA stimulation, read-out: IC50 of inhibition of increase in COL1+ area
Procedure: (§1) Recent work from Dorrier et al., has implicated persistent fibrotic scarring in the CNS in the mouse EAE model and that the contributing cells were of meningeal origin. […] We cultured primary rat or human brain meningeal fibroblasts and applied 10 µM LPA to induce activation. Upon LPA stimulation, we saw a change in morphology that could be quantified as a change in collagen I (COL1^+) area.
Meningeal fibroblasts were isolated from postnatal day 8 CD-1 rats (Charles River Labs, Willington, MA). Meninges were peeled off and digested in Accutase (Thermo Fisher, Waltham, MA, Waltham, MA) for 20 min at room temperature. […] was added to stop protease activity. Digested meninges were dissociated by trituration and cells were strained through a 40 µm nylon mesh and spun down at 800 g for 15 min. The cell pellet was resuspended in DMEM + 10% FBS and plated in a T-75 flask (Corning) for 10 days. Cells were lifted with Accutase and replated into 96-well Perkin Elmer, Boston, MA Viewplates, at 15k per well. The next day, cells were starved in DMEM for 8 h. […] 1 µM LPA or vehicle were added for 5 h. […] Primary antibody was detected using a goat-anti-mouse Alexa488 secondary antibody (Invitrogen, Carlsbad, CA, 1:250) with Hoechst. Wells were imaged on Nikon A1R confocal and Col1^+ area measured normalized to cell number (Hoechst count). […]

[4] = system: human brain meningeal fibroblasts; assay: LPA-induced activation of human meningeal fibroblasts (COL1+ area); assay type: cell-based; settings: LPA stimulation, read-out: IC50 of inhibition of increase in COL1+ area
Procedure: as §1
Meningeal fibroblasts were obtained from IxCells (San Diego, CA) and plated at 5000 cells per well according to manufacturer's protocol. […] Cells were stained and imaged as described with rat meningeal fibroblasts.
Supplemental Figure 8. […] A. Rat primary meningeal fibroblasts were isolated and serum starved overnight. […] Cells were fixed and immunostained with a collagen 1a1 antibody (green) and counterstained with Hoechst (blue). […] Cells were fixed and immunostained with a collagen I antibody (green) and counterstained with Hoechst (blue). […] C. […] Collagen 1a1 (green), Hoechst (blue). Scale bar 50 µm. One-way ANOVA with Dunnett’s; * p<0.05, ** p<0.01, *** p<0.001, **** p<0.0001.

[5] = system: off-target panel (SAFETYscan E/IC50 ELECT); assay: Eurofins off-target panel (SAFETYscan E/IC50 ELECT); settings: test concentration 30 µM
Text: Supplemental Figure 1. Results from Eurofins SAFETYscan E/IC50 ELECT.

T1 sequence (P61793 whole entry): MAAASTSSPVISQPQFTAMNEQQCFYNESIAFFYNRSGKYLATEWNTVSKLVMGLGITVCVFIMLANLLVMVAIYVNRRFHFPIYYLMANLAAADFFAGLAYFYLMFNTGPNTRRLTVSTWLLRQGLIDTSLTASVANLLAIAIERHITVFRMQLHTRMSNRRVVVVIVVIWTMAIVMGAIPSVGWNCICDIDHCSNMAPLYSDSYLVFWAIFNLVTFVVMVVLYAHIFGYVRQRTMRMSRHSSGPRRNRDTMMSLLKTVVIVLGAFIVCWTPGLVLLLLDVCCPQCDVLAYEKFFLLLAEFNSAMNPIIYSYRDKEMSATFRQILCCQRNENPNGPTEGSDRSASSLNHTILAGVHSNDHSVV

time for which LPA1 occupancy was sustained ([1]; 3 mg/kg oral, followed out to 7 days): 24 h
EC50 ([1]; once daily for 4 consecutive days (steady state), read-out: unbound brain EC50): 2.4 nM
LPA1 receptor occupancy ED50 ([1]; single oral dose 2 h prior to radioligand, mouse brain): 0.17 mg/kg
LPA1 receptor occupancy ED50 ([1]; single oral dose 24 h prior to radioligand, mouse brain): 0.19 mg/kg
EC50 ([1]; single oral dose, unbound brain concentration versus occupancy, read-out: unbound brain EC50 (Cu, brain)): 2.2 nM
LPA1 receptor occupancy ED50 ([1]; steady state: once daily for 4 days, occupancy 2 h after fourth dose): 0.03 mg/kg
Structure (SMILES): COc1ccc(NC(=O)N(c2ccccc2C(C)C)C2CCC(C(=O)O)CC2)c(OC(F)F)n1 (stereo not shown) [PIPE-791]
effect on LPA-induced decrease in microglial perimeter length [2]: inhibited; also recorded: prevented
IC50 [3]: 31.8 nM
IC50 [4]: 4.5 nM
off-target activities [5]: no appreciable activities

Reference: article PMC11079064, “Discovery of a brain penetrant small molecule antagonist targeting LPA1 receptors to reduce neuroinflammation and promote remyelination in multiple sclerosis” (Scientific Reports, 2024)
